Measurements taken from patent publication US11053248B2, “[1,2,4]triazolo[1,5-a]pyrimidine compounds as PDE2 inhibitors” (Janssen Pharmaceutica NV, priority 2016, dated 2021).

What was measured:
hPDE2A = molecular target: T1, hPDE2A (Homo sapiens, UniProt O00408); test: In vitro assay PDE2A (SPA, 3H-cGMP); type: biochemical
T1 construct: made in house; host or cells: Sf9 insect cells (baculovirus)
Procedure, shortened: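 Sf9-expressed, Ni-sepharose-purified enzyme in 50 mM Tris pH 7.8, 8.3 mM MgCl2, 1.7 mM EGTA with 10 μM cGMP plus 0.01 μCi 3H-cGMP (final), 1% DMSO. Reaction 45 min at room temperature; SPA bead radioactivity counted as cpm, blanks without enzyme, controls with DMSO instead of compound.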

PDE2A = molecular target: T2, PDE2A (Rattus norvegicus, UniProt Q01062); test: PDE2 occupancy by ex-vivo autoradiography with [3H]B-17a; type: in vivo; conditions: rat
T2 construct: from tissue; host or cells: rat brain striatal sections (ex vivo)
T2 sequence (Q01062 1-928): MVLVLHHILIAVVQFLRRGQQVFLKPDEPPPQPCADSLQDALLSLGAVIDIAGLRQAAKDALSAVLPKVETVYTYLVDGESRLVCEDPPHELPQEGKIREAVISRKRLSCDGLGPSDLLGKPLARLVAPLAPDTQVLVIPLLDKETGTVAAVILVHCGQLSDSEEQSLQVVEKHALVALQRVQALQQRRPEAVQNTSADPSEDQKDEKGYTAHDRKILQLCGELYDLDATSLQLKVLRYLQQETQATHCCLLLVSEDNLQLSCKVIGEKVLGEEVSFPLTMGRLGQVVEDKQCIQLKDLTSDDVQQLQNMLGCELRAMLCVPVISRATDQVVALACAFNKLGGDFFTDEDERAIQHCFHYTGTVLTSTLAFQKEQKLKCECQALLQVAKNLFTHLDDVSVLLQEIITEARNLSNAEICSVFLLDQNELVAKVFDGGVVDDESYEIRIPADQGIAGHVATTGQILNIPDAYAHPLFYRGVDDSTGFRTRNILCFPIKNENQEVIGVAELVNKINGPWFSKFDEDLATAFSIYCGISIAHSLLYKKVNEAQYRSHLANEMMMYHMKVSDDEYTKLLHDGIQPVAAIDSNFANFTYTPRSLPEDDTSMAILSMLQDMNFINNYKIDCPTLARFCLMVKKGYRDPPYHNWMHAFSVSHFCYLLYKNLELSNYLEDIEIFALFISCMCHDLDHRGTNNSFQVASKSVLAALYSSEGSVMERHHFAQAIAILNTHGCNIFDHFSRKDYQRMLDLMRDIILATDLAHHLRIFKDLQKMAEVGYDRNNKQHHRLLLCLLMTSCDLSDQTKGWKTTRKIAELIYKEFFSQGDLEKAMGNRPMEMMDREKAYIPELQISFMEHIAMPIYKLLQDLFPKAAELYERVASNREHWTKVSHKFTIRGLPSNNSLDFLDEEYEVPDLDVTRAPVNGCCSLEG

T1 sequence (O00408 whole entry): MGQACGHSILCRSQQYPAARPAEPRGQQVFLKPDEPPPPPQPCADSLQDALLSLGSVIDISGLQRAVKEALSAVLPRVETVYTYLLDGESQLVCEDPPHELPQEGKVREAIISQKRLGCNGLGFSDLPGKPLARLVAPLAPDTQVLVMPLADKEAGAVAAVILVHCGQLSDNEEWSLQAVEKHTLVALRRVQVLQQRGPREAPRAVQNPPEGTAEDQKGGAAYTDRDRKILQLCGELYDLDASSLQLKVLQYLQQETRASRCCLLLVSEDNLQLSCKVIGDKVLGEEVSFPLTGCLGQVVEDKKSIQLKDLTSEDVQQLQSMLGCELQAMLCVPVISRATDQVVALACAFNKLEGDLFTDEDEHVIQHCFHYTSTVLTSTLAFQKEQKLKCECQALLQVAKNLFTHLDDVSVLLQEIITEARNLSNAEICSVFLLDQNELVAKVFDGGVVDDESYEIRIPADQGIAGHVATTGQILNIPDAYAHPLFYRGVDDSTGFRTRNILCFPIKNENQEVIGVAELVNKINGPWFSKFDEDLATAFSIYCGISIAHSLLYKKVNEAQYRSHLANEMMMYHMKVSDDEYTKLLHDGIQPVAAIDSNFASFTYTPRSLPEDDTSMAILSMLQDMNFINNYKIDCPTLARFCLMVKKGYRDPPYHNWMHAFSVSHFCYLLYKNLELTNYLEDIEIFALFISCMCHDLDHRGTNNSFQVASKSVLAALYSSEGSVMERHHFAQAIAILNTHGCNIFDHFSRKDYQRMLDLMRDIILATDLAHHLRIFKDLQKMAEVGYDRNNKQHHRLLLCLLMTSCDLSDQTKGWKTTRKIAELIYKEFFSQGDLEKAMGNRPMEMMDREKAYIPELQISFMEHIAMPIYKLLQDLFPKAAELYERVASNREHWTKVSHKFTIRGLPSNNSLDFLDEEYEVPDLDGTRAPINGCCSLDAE

C[C@@H]1CCN(c2nccc3ccc(Br)cc23)C[C@H]1c1cc(C(F)F)nc2ncnn12 [Compound 1]
melting point: 129.91 °C
IC50 (hPDE2A; 10 μM cGMP substrate, read-out: hPDE2A pIC50 (converted)): 2.24 nM
Emax (hPDE2A; read-out: hPDE2A Emax): 96%
receptor occupancy at 10 mg/kg (PDE2A; po, read-out: PDE2 occupancy at 10 mg/kg, route PO (oral), 10 mg/kg, male Wistar rats, striatum, percentage occupancy): 94%
ED50 (PDE2A; sc, read-out: PDE occupancy ED50, route SC (subcutaneous), male Wistar rats, dose producing 50% occupancy): 6.7 mg/kg
